Assay results reported in patent US6548553B2, “Styryl sulfone anticancer agents” (Temple University-of the Commonwealth System of Higher …, priority 1997, dated 2003).
Each block holds one molecule with its values, some of them ahead of it.

Key:
LnCaP and MCF-7 cells = experiment: Trypan blue exclusion viability assay, Tables 2-4; format: cell-based; conditions: 5.0 μM compound, 48 hours; for viability at 5 µM: read-out: % viable LnCaP and MCF-7 cells
Method: (§1) The effect of the styryl sulfones on the growth of normal and tumor cells of breast and prostate was examine utilizing four cell lines, NIH3T3, MCF-7, BT-20 and LnCap. NIH/3T3 cells represent normal fibroblasts while LnCap is an androgen-dependent prostate tumor cell line. MCF-7 is an estrogen-responsive breast tumor cell line, while BT-20 is an estrogen-unresponsive breast tumor cell line. MCF-7 and BT-20 were grown in Dulbecco's modified Eagle's medium (DMEM) containing 10% fetal bovine serum supplemented with penicillin and streptomycin. LnCaP were cultured in RPMI with 10% fetal bovine serum containing penicillin and streptomycin. NIH3T3 cells were grown in DMEM containing 10% calf serum supplemented with penicillin and streptomycin. All cell cultures were maintained at 37° C. in a humidified atmosphere of 5% CO2.
Cells were treated with test compound at 2.5 μM or 5.0 μM concentration and cell viability was determined after 48 hours by the Trypan blue exclusion method. The compounds identified in Tables 2, 3 and 4 inhibited cell growth and induced cell death, to varying degrees. The tables list the percent viable LnCap and MCF-7 cells treated with 5.0 μM compound.

[1] = test system: LnCaP, BT-20 and MCF-7 cells; experiment: Trypan blue exclusion viability/proliferation assay (dose and time course); format: cell-based
Method: as §1
(§2) The compounds identified in Tables 2, 3 and 4 inhibited cell growth and induced cell death, to varying degrees. The tables list the percent viable LnCap and MCF-7 cells treated with 5.0 μM compound.
(§3) NIH3T3, MCF-7, BT-20 and LnCaP cells were treated with FRI-20 dissolved in DMSO to concentrations of 250 nM, 500 nM, 1 μM, 2.5 μM and 5 μM and examined for their proliferation and viability after 48 hours (FIG. 2A). The percentage of living cells was determined by Trypan blue exclusion. The control cells were treated with DMSO to determine the effect of solvent on cells. […] Under these conditions, only 2-3% of NIH3T3 cells were non-viable at both the concentrations. […] After 48 hours incubation, 60-75% of the LnCaP, BT-20 and MCF-7 cells were dead at […] FRI-20 concentration, whereas more than 90% of NIH3T3 cells were viable (FIG. 2A).
NIH/3T3, MCF-7, BT-20 and LnCap were treated with FRI-20 at 2.5 μM and the number of viable cells was determined at 12, 24, 48 and 72 hours by Trypan blue exclusion.

[2] = test system: LnCaP, BT-20 and MCF-7 cells; experiment: as above; format: cell-based; conditions: 2.5 mM (FIG. 1A) and 5.0 mM (FIG. 1B), 48 hours of treatment
[3] = Trypan blue exclusion viability assay, normal fibroblasts; format: cell-based; parameters: viability at 48 h: dose or concentration left out as unconfirmed; conditions: mouse, NIH3T3 cells (normal fibroblasts); for viability at 48 h: 48 hours incubation, read-out: viable NIH3T3 cells
Method: as §1, §2
as §3, with “The” for “NIH3T3, MCF-7, BT-20 and LnCaP cells were treated with FRI-20 dissolved in DMSO to concentrations of 250 nM, 500 nM, 1 μM, 2.5 μM and 5 μM and examined for their proliferation and viability after 48 hours (FIG. 2A). The”

DU145 = experiment: GI50 growth inhibition, trypan blue cell count; format: cell-based, human; conditions: prostate, androgen receptor negative, 96 hours after addition
Method: (§4) The human carcinoma cell lines listed in Table 5 below were purchased from ATCC and grown in an appropriate growth medium containing 10% fetal bovine serum (FBS) and antibiotics. The cells were plated at a cell density of 1.0×10^5 cells per […] in 6-well dishes. The cells were treated with various concentrations of (E)-fluorostyryl-4-bromobenzylsulfone 24 hours after plating in a total volume of 1 ml of medium using dimethylsulfoxide (DMSO) as a solvent for the compound. Control cells were treated with DMSO alone. The total number of viable cells was determined 96 hours after the addition of the compound by counting the cells in each well using a hemacytometer after trypan blue staining (viable cells exclude the stain). The counts were done in duplicate and the average was graphed in FIG. 8 as a percentage of the non-treated control group.

U87 = experiment: GI50 growth inhibition, trypan blue cell count; format: cell-based, human; conditions: glioblastoma, 96 hours after addition
Method: as §4

MIA-PaCa-2 = experiment: GI50 growth inhibition, trypan blue cell count; format: cell-based, human; conditions: pancreatic, 96 hours after addition
Method: as §4

DLD-1 = experiment: GI50 growth inhibition, trypan blue cell count; format: cell-based, human; conditions: cob-rectal, 96 hours after addition
Method: as §4

H157 = experiment: GI50 growth inhibition, trypan blue cell count; format: cell-based, human; conditions: lung, non-small cell, 96 hours after addition
Method: as §4

BT20 = experiment: GI50 growth inhibition, trypan blue cell count; format: cell-based, human; conditions: breast, estrogen receptor negative, 96 hours after addition
Method: as §4

DU145 cells = experiment: Comparison with cisplatin, Trypan blue viability after 72 hours; format: cell-based; conditions: DU145, 72 hours, Trypan blue exclusion
Method: (§5) The killing effect of FR-20 on androgen-sensitive (LnCaP) and androgen insensitive (DU145) prostate tumor cells was compared to the effect of cisplatin (cis-diamminedichloroplatinum II), a widely used anti-prostate cancer agent. The cells were grown as in Example 26. FRI-20 or cisplatin was dissolved in DMSO and added to the cells at various concentrations. Viability was determined after 72 hours by the Trypan blue exclusion method. The concentration of FRI-20 required to completely kill LnCaP and DU145 cells was 2.5 μM and 5.0 μM, respectively. Under identical conditions, complete killing of LnCaP and DU145 cells by cisplatin required 25 μM and 15 μM concentrations, respectively.

LnCaP cells = experiment: as above; format: cell-based; conditions: LnCaP, 72 hours, Trypan blue exclusion
Method: as §5

SK-MEL-28 = experiment: GI50 growth inhibition, trypan blue cell count; format: cell-based; conditions: Homo sapiens, melanoma, 96 hours after addition
Method: as §4

SMILES: O=C(C(=Cc1ccc(F)cc1)S(=O)(=O)c1ccccc1Cl)c1ccccc1 [Example 24]
% viable LnCaP and MCF-7 cells (LnCaP and MCF-7 cells): 64%

SMILES: O=S(=O)(/C=C/c1ccc(Br)cc1)Cc1ccc(Cl)cc1 [Example 19, E-4-bromostyryl 4-chlorobenzyl Sulfone]
activity (growth inhibition and cell death) [1]: highly active
viability at 5 µM (LnCaP and MCF-7 cells): 20%

SMILES: O=S(=O)(/C=C/c1ccc(Br)cc1)c1ccccc1 [Example 4, E-4-bromostyryl Phenyl Sulfone]
viability at 5 µM (LnCaP and MCF-7 cells): 68%

SMILES: O=C(C(=Cc1ccc(F)cc1)S(=O)(=O)c1ccc(F)cc1)c1ccccc1 [Example 23, 2-[(4-fluorophenyl)sulfonyl]-1-phenyl-3-(4-fluorophenyl)-2-propen-1-one]
viability at 5 µM (LnCaP and MCF-7 cells): 76%

SMILES: O=S(=O)(/C=C/c1ccc(F)cc1)Cc1ccc(F)cc1 [Example 13, E-4-fluorostyryl 4-fluorobenzyl Sulfone]
viability at 5 µM (LnCaP and MCF-7 cells): 43%

SMILES: O=C(C(=Cc1ccc(Br)cc1)S(=O)(=O)c1ccc(Cl)cc1)c1ccccc1 [Example 26, 2-[(4-chlorophenyl)sulfonyl]-1-phenyl-3-(4-bromophenyl)-2-propen-1-one]
viability at 5 µM (LnCaP and MCF-7 cells): 58%

SMILES: O=S(=O)(/C=C/c1ccc(Cl)cc1Cl)c1ccccc1 [Example 3, E-2,4-dichlorostyryl Phenyl Sulfone]
viability at 5 µM (LnCaP and MCF-7 cells): 88%

SMILES: O=S(=O)(/C=C/c1ccccc1)c1ccccc1 [Example 1, E-styryl Phenyl Sulfone]
viability at 5 µM (LnCaP and MCF-7 cells): 89%

SMILES: O=S(=O)(/C=C/c1ccc(Br)cc1)Cc1ccc(F)cc1 [Example 17, E-4-bromostyryl 4-fluorobenzyl Sulfone]
inhibition of growth and induction of death of LnCaP, BT-20 and MCF-7 cells [2]: substantially inhibit the growth and induce the death
viability at 48 h, 5 µM [3]: > 80%
viability at 48 h [3]: > 80%
viability at 5 µM (LnCaP and MCF-7 cells): 42%

SMILES: O=S(=O)(/C=C\c1ccccc1)/C=C/c1ccc(Cl)cc1 [Example 22, (Z)-styryl-(E)-4-chlorostyryl Sulfone]
viability at 5 µM (LnCaP and MCF-7 cells): 72%

SMILES: Cc1ccc(/C=C/S(=O)(=O)c2ccc(Cl)cc2)cc1 [Example 6, E-4-methylstyryl 4-chlorophenyl Sulfone]
viability at 5 µM (LnCaP and MCF-7 cells): 92%

SMILES: O=S(=O)(/C=C/c1ccc(Cl)cc1)Cc1ccc(Br)cc1 [Example 18, E-4-chlorostyryl 4-bromobenzyl Sulfone]
activity (growth inhibition and cell death) [1]: highly active
viability at 5 µM (LnCaP and MCF-7 cells): 7%

SMILES: O=C(C(=Cc1ccc(Br)cc1)S(=O)(=O)c1ccccc1[N+](=O)[O-])c1ccccc1 [Example 27, 2-[(2-nitrophenyl)sulfonyl]-1-phenyl-3-(4-bromophenyl)-2-propen-1-one]
viability at 5 µM (LnCaP and MCF-7 cells): 74%

SMILES: O=S(=O)(/C=C/c1ccc(F)cc1F)Cc1ccc(F)cc1 [Example 14, E-2,4-difluorostyryl 4-fluorobenzyl Sulfone]
inhibition of growth and induction of death of LnCaP, BT-20 and MCF-7 cells [2]: substantially inhibit the growth and induce the death
viability at 48 h, 5 µM [3]: > 80%
viability at 48 h [3]: > 80%
viability at 5 µM (LnCaP and MCF-7 cells): 56%

SMILES: O=S(=O)(/C=C/c1ccc(Cl)cc1)c1ccc(Cl)cc1 [Example 5, E-4-chlorostyryl 4-chlorophenyl Sulfone]
viability at 5 µM (LnCaP and MCF-7 cells): 64%

GI50 (DU145): 2000 nM
GI50 (U87): 1800 nM
GI50 (MIA-PaCa-2): 1000 nM
GI50 (DLD-1): 800 nM
GI50 (H157): 1500 nM
GI50 (BT20): 900 nM
SMILES: O=S(=O)(/C=C/c1ccc(F)cc1Cl)Cc1ccc(Cl)cc1 [Example 36, E-(2)-chloro-4-fluorostyryl-4-chlorobenzylsulfone]

SMILES: O=S(=O)(/C=C\c1ccccc1)/C=C/c1ccc(F)cc1 [Example 20, (Z)-styryl-(E)-4-fluorostyryl Sulfone]
viability at 5 µM (LnCaP and MCF-7 cells): 76%

SMILES: O=S(=O)(/C=C/c1ccc(Cl)cc1)Cc1ccc(Cl)cc1 [Example 12, E-4-chlorostyryl 4-chlorobenzyl Sulfone]
inhibition of growth and induction of death of LnCaP, BT-20 and MCF-7 cells [2]: substantially inhibit the growth and induce the death
viability at 48 h, 5 µM [3]: > 80%
viability at 48 h [3]: > 80%
viability at 5 µM (LnCaP and MCF-7 cells): 49%

SMILES: O=S(=O)(/C=C/c1ccc(Br)cc1)Cc1ccc(Br)cc1 [Example 16, E-4-bromostyryl 4-bromobenzyl Sulfone]
viability at 5 µM (LnCaP and MCF-7 cells): 51%

SMILES: N.N.[Cl][Pt][Cl] [cisplatin, cis-diamminedichloroplatinum II, reference compound]
concentration required to completely kill cells (DU145 cells): 15 µM
concentration required to completely kill cells (LnCaP cells): 25 µM

SMILES: COc1ccc(/C=C/S(=O)(=O)c2ccc(Cl)cc2)cc1 [Example 7, E-4-methoxystyryl 4-chlorophenyl Sulfone]
viability at 5 µM (LnCaP and MCF-7 cells): 90%

SMILES: O=S(=O)(/C=C\c1ccccc1)/C=C/c1ccc(Br)cc1 [Example 21, (Z)-styryl-(E)-4-bromostyryl Sulfone]
viability at 5 µM (LnCaP and MCF-7 cells): 68%

SMILES: O=C(C(=Cc1ccc(Br)cc1)S(=O)(=O)c1ccccc1Cl)c1ccccc1 [Example 25, 2-[(2-chlorophenyl)sulfonyl]-1-phenyl-3-(4-bromophenyl)-2-propen-1-one]
viability at 5 µM (LnCaP and MCF-7 cells): 72%

SMILES: O=S(=O)(/C=C/c1ccc(Cl)cc1)Cc1ccccc1 [Example 10, E-4-chlorostyryl Benzyl Sulfone]
viability at 5 µM (LnCaP and MCF-7 cells): 87%

SMILES: O=S(=O)(/C=C/c1ccc(Br)cc1)c1ccc(Cl)cc1 [Example 8, E-4-bromostyryl 4-chlorophenyl Sulfone]
viability at 5 µM (LnCaP and MCF-7 cells): 69%

SMILES: O=S(=O)(/C=C/c1ccccc1Cl)Cc1ccccc1 [Example 9, E-2-chlorostyryl Benzyl Sulfone]
viability at 5 µM (LnCaP and MCF-7 cells): 94%

SMILES: O=S(=O)(/C=C/c1ccc(F)cc1)Cc1ccc(Br)cc1 [Example 15, E-4-fluorostyryl 4-bromobenzyl Sulfone]
GI50 (SK-MEL-28): 1000 to 2000 nM
inhibition of growth and induction of death of LnCaP, BT-20 and MCF-7 cells [2]: substantially inhibit the growth and induce the death
GI50 (DU145; Homo sapiens, DU-145): 2500 nM
GI50 (U87; Homo sapiens, U-87 MG): 1000 to 2000 nM
GI50 (MIA-PaCa-2; Homo sapiens, MIA PaCa-2): < 1000 nM
GI50 (DLD-1; Homo sapiens, DLD-1): < 1000 nM
GI50 (H157; Homo sapiens, NCI-H157): < 1000 nM
GI50 (BT20; Homo sapiens, BT-20): 1000 to 2000 nM
viability at 48 h, 5 µM [3]: > 80%
viability at 48 h [3]: > 80%
viability at 5 µM (LnCaP and MCF-7 cells): 7%

SMILES: O=S(=O)(/C=C/c1ccc(Cl)cc1)c1ccccc1 [Example 2, E-4-chlorostyryl Phenyl Sulfone]
viability at 5 µM (LnCaP and MCF-7 cells): 90%
